Test results published in US20050222114A1, “Use of new etonogestrel esters” (priority 2002, published 2005).
Where two headings read alike, the source gives them in different places.

Assays:
[1] = rabbit, in vivo, 20 mg/kg
Procedure: (§1) For the determination of the pharmacokinetic profile of the different etonogestrel-esters after parenteral application, i.m. application in the castrated rabbit model was chosen instead of s.c. Briefly, rabbits were injected once (day 1) with indicated etonogestrel-esters at 20 mg/kg in arachis oil (with a concentration of 40 mg/ml). At day 1, 2, 3, 4, 5, 6, 7, 8, 10, 12, 14, 21, 28, 35, 49, 63, 77, 92, 106, 120 and 133 blood was collected from the ear arteria, in EDTA-containing tubes. EDTA plasma was prepared (1500 g, 15 min) and stored at −20° C. With LC-MSMS the amount of parent compound (etonogestrel) was determined in these samples. The lower limit of this new assay is 0.5 nmol/l, from 0-250 nmol/l a linear curve was obtained with a correlation coefficient of 0,9998.

[2] = Pharmacokinetics of etonogestrel esters after one i.m. injection in rabbits (plasma etonogestrel by LC-MSMS); conditions: rabbit; for initial peak level of etonogestrel in plasma: one i.m. injection 20 mg/kg in arachis oil (40 mg/ml)
Procedure: as §1

[3] = Pharmacokinetics of androgen esters after one s.c. injection in castrated rabbits (plasma MENT or testosterone by LC-MSMS); assay type: in vivo; conditions: castrated rabbit, one s.c. injection 20 mg/kg in arachis oil (100 mg/ml)
Procedure: With LC-MSMS, the amount of parent compound (testosterone or MENT) was determined in these samples.

[4] = Solubility in solvents determined visually (appearance); assay type: physicochemical; conditions: for solubility at two times the desired concentration: all four solvents tested, desired concentration 50 mg/ml etonogestrel-undecanoate, 100 mg/ml MENT-undecanoate
Procedure: To determine the solubility and viscosity of MENT undecanoate and etonogestrel undecanoate, four different solvents were used: • ethyl undecanoate • ethyl undecanoate+50% benzyl benzoate • arachis oil • arachis oil+50% benzyl benzoate
Using these solvents, the following solutions were prepared: • 100 mg/ml etonogestrel undecanoate in the different solvents • 50 mg/ml etonogestrel undecanoate in the different solvents • 200 mg/ml MENT undecanoate in the different solvents • 100 mg/ml MENT undecanoate in the different solvents • 50 mg/ml etonogestrel undecanoate+100 mg/ml MENT undecanoate in the different solvents
The two combined solvents were prepared by addition of 50 gram of ethyl undecanoate or arachis oil to 50 gram of benzyl benzoate. […] The arachis oil+50% benzyl benzoate solution was not filtered.
The solubility of the compounds in the solvents was determined visually. The viscosity was determined using a Brookfield model DV-III. The density of the solutions was determined using a Mettler Toledo DA-100M density meter.

[5] = hypogonadal men, one IM injection, FIG. 5; cited from earlier work
[6] = one i.m. injection 20 mg/kg in arachis oil

In the case of `C#C[C@]1(O)CC[C@H]2[C@@H]3CCC4=CC(=O)CC[C@@H]4[C@H]3C(=C)C[C@@]21CC` [etonogestrel, (17α)-13-ethyl-17-hydroxy-11-methylene-18,19-dinorpregn-4-en-20-yn-3-one], the “initial peak level of etonogestrel in plasma” value (from here on “initial peak level”) [1] is reported as 200 nmol/L.

For `C#C[C@]1(OC(=O)CCCCCC)CC[C@H]2[C@@H]3CCC4=CC(=O)CC[C@@H]4[C@H]3C(=C)C[C@@]21CC` [etonogestrel heptanoate], the “initial peak level” value [2] was 120 nmol/L.

With `CCCCCCC(=O)O[C@H]1CC[C@H]2[C@@H]3CCC4=CC(=O)CC[C@]4(C)[C@H]3CC[C@]12C` [Testosterone-enanthate] the “pharmacokinetic profile of released MENT or testosterone (in words)” value [3] was “high peak of testosterone”.

For `CCCCCCCCCCC(=O)O[C@H]1CC[C@H]2[C@H]3[C@H](CC[C@]12C)[C@H]1CCC(=O)C=C1C[C@H]3C` [MENT-undecanoate], the “heating necessary to dissolve” value ([4]; 200 mg/ml in arachis oil) was “approximately 50 °C” and the “solubility at two times the desired concentration” value [4] was “could be dissolved at two times the desired concentration”.

For `C#C[C@]1(OC(=O)CCCCCCCCCC)CC[C@H]2[C@@H]3CCC4=CC(=O)CC[C@@H]4[C@H]3C(=C)C[C@@]21CC` [etonogestrel undecanoate], the “solubility at two times the desired concentration” value [4] was “could be dissolved at two times the desired concentration”, the “duration of action: etonogestrel levels above 1 nmol/l” value [2, 6] was “more than 92 days” and the “initial peak level” value [2] was 13 nmol/L.

With `C#C[C@]1(OC(=O)CCCCCCCC)CC[C@H]2[C@@H]3CCC4=CC(=O)CC[C@@H]4[C@H]3C(=C)C[C@@]21CC` [etonogestrel nonanoate] the “pharmacokinetic profile of released etonogestrel (in words)” value [2, 6] was “lower peak levels and extended duration with serum levels of etonogestrel above 1 nmol/l”.

For `CCCCCCCCCCC(=O)O[C@H]1CC[C@H]2[C@@H]3CCC4=CC(=O)CC[C@]4(C)[C@H]3CC[C@]12C` [testosterone undecanoate], the “pharmacokinetics of serum testosterone in humans (in words)” value [5] is listed as “low initial release and steady-state levels of long duration”.

With `C#C[C@]1(OC(=O)CCCCCCCCCCC)CC[C@H]2[C@@H]3CCC4=CC(=O)CC[C@@H]4[C@H]3C(=C)C[C@@]21CC` [etonogestrel dodecanoate] the “initial peak level” value [2] was 9 nmol/L.

In the case of `C#CC1(OC(=O)CCCCCCCCC)CCC2C3CCC4=CC(=O)CCC4C3C(=C)CC21CC` (stereo not shown) [etonogestrel decanoate], the “initial peak level” value [2] is reported as 24 nmol/L.

In the case of `C#C[C@]1(OC(=O)CCCCCCCCCCCC)CC[C@H]2[C@@H]3CCC4=CC(=O)CC[C@@H]4[C@H]3C(=C)C[C@@]21CC` [etonogestrel tridecanoate], the “pharmacokinetic profile of released etonogestrel (in words)” value [2, 6] is reported as “no initial levels of etonogestrel were observed”.
